The results in this text go back to ChEMBL document CHEMBL1201862, “PubChem BioAssay data set” (2004).

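Exposure lasted 48 hours, with cells grown in 96-well plates and compounds tested at five concentrations. At the GI50, growth is halved.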 Active and inactive are the calls of the source. Cut-off read from the data, not from the text of the source: active = GI50 up to about 1.1 µM and inactive = higher. Some results are limits rather than exact numbers.

Among the test systems are BT-549; MOLT-4; HCT-15; Malme-3M; MCF7; PC-3; SF-539; COLO 205; HOP-62; SN12C; K562; SK-MEL-5; 786-0; SF-295; SNB-75; NCI-H23; EKVX; ACHN.
Holding throughout (assay): NCI tumour cell line growth inhibition, 48 h

Regarding `CCOC(=O)c1cc(C2(O)CCN(CC(C)CC)C2=O)c(-c2cc(C)no2)[nH]1` (centres undefined), the GI50 with BT-549 was > 100 µM (inactive); in the experiment on MOLT-4, > 100 µM (inactive); in the experiment with HCT-15, > 100 µM; with Malme-3M, > 100 µM (inactive); in the experiment on MCF7 it was > 100 µM (inactive); in the experiment on PC-3, > 100 µM (inactive). Moreover, the GI50 with SF-539, in the experiment on COLO 205, with HOP-62, in the experiment on SN12C, with K562 and in the experiment on SK-MEL-5 was > 100 µM (inactive) each time. For the same molecule, the GI50 with 786-0, in the experiment with SF-295, in the experiment with SNB-75, with NCI-H23 and in the experiment on EKVX was > 100 µM (inactive) in each case.

Consider `O=C1CSC2(CC(/C=C/C=C/c3ccccc3)=NN2c2cccc(S(=O)(=O)O)c2)N1c1nc2ccccc2s1` (centres undefined), for which the GI50 with BT-549 was 51.5 µM (inactive); with MOLT-4 it was 21.2 µM (inactive); with HCT-15 it was 67.9 µM; in the experiment on MCF7, 29.6 µM (inactive); in the experiment with PC-3, 37.3 µM (inactive); in the experiment on SF-539, 51.1 µM (inactive). Moreover, the GI50 in the experiment with ACHN was 40.3 µM (inactive); in the experiment with COLO 205, 50.8 µM (inactive); in the experiment with SN12C, 62.5 µM (inactive); in the experiment with K562, 29 µM (inactive); with SK-MEL-5, 35.2 µM (inactive); in the experiment on 786-0, 40.2 µM (inactive). Also, the GI50 in the experiment with SNB-75 is > 100 µM (inactive); in the experiment with NCI-H23, 43.8 µM (inactive); with EKVX, 49 µM (inactive).

In the case of `Cc1ccc2c(c1C)C(=O)C1(Cc3cc4c(cc3C1=O)CCC4)C2` (centres undefined), the GI50 is > 100 µM (inactive) in the experiment on BT-549; > 100 µM (inactive) in the experiment on MOLT-4; > 100 µM with HCT-15; > 100 µM (inactive) in the experiment on Malme-3M; > 100 µM (inactive) with MCF7; > 100 µM (inactive) in the experiment with PC-3. In addition, the GI50 with SF-539 was 0.726 µM (active); in the experiment on ACHN, > 100 µM (inactive); in the experiment on COLO 205 it was > 100 µM (inactive); in the experiment with SN12C it was > 100 µM (inactive); in the experiment on K562, > 100 µM (inactive); in the experiment with SK-MEL-5, > 100 µM (inactive). Moreover, the GI50 with 786-0, in the experiment with SF-295, in the experiment with SNB-75, in the experiment on NCI-H23 and in the experiment with EKVX was > 100 µM (inactive) each time.

For the molecule `COc1ccc2c(c1)CCN1CCCc3ccccc3C21` (centres undefined), the GI50 is 28.1 µM (inactive) with BT-549; 32.1 µM (inactive) with MOLT-4; 37.6 µM in the experiment on HCT-15; 25.4 µM (inactive) with MCF7; 36.9 µM (inactive) with PC-3; 17.5 µM (inactive) in the experiment with SF-539. Further, the GI50 in the experiment on ACHN was 54.2 µM (inactive); in the experiment on COLO 205 it was 27.6 µM (inactive); in the experiment with HOP-62, 69.2 µM (inactive); with SN12C, 42.7 µM (inactive); with K562 it was 30.1 µM (inactive); with SK-MEL-5, 58.5 µM (inactive). In addition, the GI50 in the experiment on 786-0 is 38.4 µM (inactive); with SF-295, 26.4 µM (inactive); with SNB-75 it was 22 µM (inactive); with NCI-H23, 45.8 µM (inactive); in the experiment on EKVX, > 100 µM (inactive).

As to `CCC1=C(CC2NCCc3cc(OC)c(OC)cc32)CC2c3ccccc3CCN2C1` (centres undefined), the GI50 in the experiment on BT-549 was 49.4 µM (inactive); in the experiment on MOLT-4, 15.3 µM (inactive); in the experiment on HCT-15 it was 37.9 µM; with Malme-3M, 14.6 µM (inactive); in the experiment on MCF7, 18.7 µM (inactive); in the experiment with PC-3, 16.2 µM (inactive). Also, the GI50 with SF-539 was 9.55 µM (inactive); in the experiment with ACHN, 31.5 µM (inactive); in the experiment with COLO 205, 10.2 µM (inactive); in the experiment on HOP-62 it was 21.7 µM (inactive); in the experiment with SN12C, 21.7 µM (inactive); in the experiment on K562 it was 10.1 µM (inactive). Moreover, the GI50 with SK-MEL-5 was 14.8 µM (inactive); in the experiment on 786-0, 14 µM (inactive); in the experiment with SF-295, 20.4 µM (inactive); with SNB-75, 19.8 µM (inactive); in the experiment on EKVX it was 22.2 µM (inactive).

Turning to `CC(C)OC(=O)[C@@H](O)[C@H](CO)C1=CC([Si](C)(C)c2ccccc2)=CON1`, the GI50 is > 100 µM (inactive) in the experiment on BT-549; > 100 µM (inactive) in the experiment on MOLT-4; > 100 µM in the experiment with HCT-15; > 100 µM (inactive) in the experiment on MCF7; > 100 µM (inactive) in the experiment with PC-3; > 100 µM (inactive) in the experiment with SF-539. Also, the GI50 in the experiment on ACHN, in the experiment on COLO 205, with HOP-62, in the experiment on K562, with SK-MEL-5 and in the experiment on 786-0 was > 100 µM (inactive) each time. For the same molecule, the GI50 was > 100 µM (inactive) in the experiment on SF-295, 1.26 µM (inactive) in the experiment with SNB-75, > 100 µM (inactive) with NCI-H23 and > 100 µM (inactive) in the experiment on EKVX.

Turning to `CCCCC1(O)CC2CC1C(C)C2(C)C` (centres undefined), the GI50 in the experiment with BT-549 is > 100 µM (inactive); in the experiment with MOLT-4, 93.3 µM (inactive); in the experiment on HCT-15, > 100 µM; in the experiment with Malme-3M it was > 100 µM (inactive); in the experiment on MCF7, > 100 µM (inactive); with PC-3 it was > 100 µM (inactive). Further, the GI50 with SF-539, with COLO 205, in the experiment on HOP-62, in the experiment on SN12C, in the experiment with K562 and with SK-MEL-5 was > 100 µM (inactive) throughout. Also, the GI50 with 786-0, in the experiment with SF-295, in the experiment on SNB-75, with NCI-H23 and in the experiment with EKVX was > 100 µM (inactive) each time.

Consider `CCOc1ccc(NC(=O)C(=O)Nn2c(N)nnc2N)cc1`, for which the GI50 is > 100 µM (inactive) with BT-549; > 100 µM (inactive) with MOLT-4; > 100 µM in the experiment with HCT-15; > 100 µM (inactive) with Malme-3M; > 100 µM (inactive) in the experiment on MCF7; > 100 µM (inactive) with PC-3. In addition, the GI50 in the experiment with SF-539, in the experiment on ACHN, with HOP-62, with SN12C, with K562 and in the experiment with SK-MEL-5 was > 100 µM (inactive) throughout. Besides, the GI50 in the experiment on 786-0, with SF-295, with SNB-75, with NCI-H23 and in the experiment with EKVX was > 100 µM (inactive) throughout.

For `Cc1c([N+](=O)[O-])ccc2c(NCCCN(C)C)ccnc12`, the GI50 was 17.9 µM (inactive) in the experiment with BT-549; > 100 µM (inactive) in the experiment on MOLT-4; 17.3 µM with HCT-15; 17.2 µM (inactive) with Malme-3M; 15.9 µM (inactive) with MCF7; 16.4 µM (inactive) in the experiment with PC-3. For the same molecule, the GI50 is 16.8 µM (inactive) in the experiment on SF-539; 30.8 µM (inactive) in the experiment on ACHN; 12.2 µM (inactive) with COLO 205; 31.1 µM (inactive) in the experiment on HOP-62; 29.1 µM (inactive) with SN12C; 48.6 µM (inactive) in the experiment on K562. For the same molecule, the GI50 is 16 µM (inactive) in the experiment on SK-MEL-5; 26.8 µM (inactive) with 786-0; 22.2 µM (inactive) in the experiment with SF-295; 25.4 µM (inactive) in the experiment with SNB-75; 19 µM (inactive) in the experiment with NCI-H23.

On to `O=c1oc2c/c(=C\c3ccccc3)c(=O)c3cccc1c3-2`, for which the GI50 in the experiment on BT-549 was 28.3 µM (inactive); with HCT-15, 36.6 µM; with Malme-3M, 24.2 µM (inactive); in the experiment with MCF7 it was > 10 µM (inactive); in the experiment with PC-3 it was 56 µM (inactive); in the experiment on SF-539, 31.5 µM (inactive). Besides, the GI50 with ACHN is > 100 µM (inactive); with COLO 205 it was 37.3 µM (inactive); in the experiment on HOP-62 it was 19.9 µM (inactive); with SN12C, 47.6 µM (inactive); in the experiment with SK-MEL-5, > 10 µM (inactive); in the experiment on 786-0, 22.8 µM (inactive). Besides, the GI50 was > 100 µM (inactive) with SF-295, 41.4 µM (inactive) in the experiment with SNB-75, 36.7 µM (inactive) with NCI-H23 and 75.3 µM (inactive) in the experiment on EKVX.

In the case of `Cc1cn(CCCCCCOC(=O)NC(CCCNC(N)=O)C(=O)O)c(=O)[nH]c1=O` (centres undefined), the GI50 in the experiment on BT-549 is > 100 µM (inactive); in the experiment on MOLT-4 it was > 100 µM (inactive); in the experiment on HCT-15, > 100 µM; with MCF7, > 100 µM (inactive); with PC-3, > 100 µM (inactive); with SF-539 it was > 100 µM (inactive). For the same molecule, the GI50 in the experiment with ACHN, in the experiment with COLO 205, in the experiment on HOP-62, in the experiment with SN12C, in the experiment with K562 and in the experiment on 786-0 was > 100 µM (inactive) each time. Further, the GI50 in the experiment on SF-295, with SNB-75, in the experiment with NCI-H23 and in the experiment with EKVX was > 100 µM (inactive) throughout.

Regarding `c1ccc([P+](c2ccccc2)(c2ccccc2)c2ccc([P+](c3ccccc3)(c3ccccc3)c3ccccc3)cc2)cc1`, the GI50 was 31.3 µM (inactive) in the experiment with BT-549; 24.7 µM (inactive) with MOLT-4; > 100 µM in the experiment on HCT-15; > 100 µM (inactive) in the experiment on Malme-3M; 32.4 µM (inactive) in the experiment with MCF7; 41.4 µM (inactive) with PC-3. Further, the GI50 in the experiment with SF-539 is 24.8 µM (inactive); in the experiment on ACHN, > 100 µM (inactive); in the experiment on COLO 205, 20.1 µM (inactive); with HOP-62 it was > 100 µM (inactive); in the experiment with SN12C, 35.7 µM (inactive); in the experiment with K562 it was 28.4 µM (inactive). Moreover, the GI50 with SK-MEL-5 is 41 µM (inactive); in the experiment on 786-0 it was > 100 µM (inactive); in the experiment with SF-295, > 100 µM (inactive); in the experiment on SNB-75 it was 37.6 µM (inactive); in the experiment with NCI-H23, 39.9 µM (inactive).
